Values joined by “and” are separate entries in the source; they are usually repeats but may differ in a detail not shown here. Identical values can stand only once.
Assays:
TARLL1b = TARLL1b (Petromyzon marinus, UniProt A0AAJ7TCG4); assay: Cell-based receptor activation reporter assay (SEAP / Dual-Glo luciferase); set-up: species or system sea lamprey; details: for EC50: TARLL1b
Experimental: (§1) Fluorescence was measured with a BioTek Microplate reader.

TARLL4a = TARLL4a (Petromyzon marinus, UniProt A0AAJ7T9R0); assay: as above; set-up: species or system sea lamprey; details: for EC50: TARLL4a; for ligand profile of TARLL4a: ligand library at 100 µM, fig. 4B, fig. S9B
Experimental: as §1

mouse HTR4 = mouse HTR4 (Mus musculus, UniProt P97288); assay: cell-based
Source text: (§2) Next, we conducted high-throughput screening to further explore the functional properties of these aminergic receptors. We cloned 248 TAARs from 11 mammals (human, mouse, rat, guinea pig, hamster, cat, horse, rabbit, sheep, rhesus, and wild boar), two reptiles (alligator and chicken), six teleosts (zebrafish, catfish, fugu, medaka, salmon, and pufferfish), one lobed-finned fish (coelacanth), one holost fish (spotted gar), and one cartilaginous fish (bamboo shark) (fig. 2A). We also cloned eight TARLs from coelacanth, zebrafish, catfish, fugu, medaka, spotted gar, shark, and 28 TARLLs from sea lamprey (supplementary table S2, Supplementary Material online). In addition, we cloned two HTR4s from mouse and zebrafish. We then challenged all of the cloned receptors with a ligand library comprised 97 amines at 100 µM.
(§3) HEK293 cells were plated onto poly-D-lysine (Sigma–Aldrich) preincubated 96-well plates (Corning) with 50 µl growth medium (DMEM medium with 10% BCS and 5% penicillin–streptomycin solution) and cultured for 18–24 h. Receptor plasmids were cotransfected with Cre-SEAP plasmid using polyethylenimine (PEI, Polysciences) and incubated at 37 °C with 5% CO2. About 4 h later, cells were incubated with or without test compounds diluted in serum-free DMEM for 48 h, followed by incubating for 2 h at 70 °C. After returning to room temperature, 50 µl supernatant from each well was incubated with an equal volume of 0.3 mM 4-methylumbelliferyl phosphate (4-MUP, Sigma–Aldrich) in 2 M diethanolamine bicarbonate (Sigma–Aldrich), pH 10.0 for 15 min. Fluorescence was measured with a BioTek Microplate reader.
(§4) Hana3A cells were plated onto 96-well plates (Greiner bio-one) with 50 µl growth medium (DMEM medium with 10% BCS and 5% penicillin–streptomycin solution with puromycin) and cultured at 37 °C with 5% CO2. After 18–24 h, cells in each well were cotransfected with 50 ng receptor plasmid, 10 ng CRE-Luc, 10 ng pRL-SV40, and 10 ng mRTPs using Lipofectamine 2000 (Invitrogen), and incubated for 18 h. Medium was then replaced by 25 µl CD293 (Invitrogen) containing 1% glutamine with or without test compounds for 4 h. The chemiluminescence of firefly luciferase and renilla luciferase were measured with a Biotek Microplate reader using the Dual-Glo Luciferase Assay System (Promega).

cat TAAR9 = assay: Cell-based receptor activation reporter assay (SEAP / Dual-Glo luciferase); details: table S3
Experimental: as §1

hamster TAAR9 = target: T1, hamster TAAR9 (Mesocricetus auratus, UniProt A0A1U7R5X1); assay: as above; details: table S3
T1 construct: Rho tag (N-terminal 20 aa of bovine rhodopsin); expressed in transfected cells; host or cells: HEK293T (SEAP assay) or Hana3A (Dual-Glo luciferase assay)
T1 sequence (A0A1U7R5X1 1-348): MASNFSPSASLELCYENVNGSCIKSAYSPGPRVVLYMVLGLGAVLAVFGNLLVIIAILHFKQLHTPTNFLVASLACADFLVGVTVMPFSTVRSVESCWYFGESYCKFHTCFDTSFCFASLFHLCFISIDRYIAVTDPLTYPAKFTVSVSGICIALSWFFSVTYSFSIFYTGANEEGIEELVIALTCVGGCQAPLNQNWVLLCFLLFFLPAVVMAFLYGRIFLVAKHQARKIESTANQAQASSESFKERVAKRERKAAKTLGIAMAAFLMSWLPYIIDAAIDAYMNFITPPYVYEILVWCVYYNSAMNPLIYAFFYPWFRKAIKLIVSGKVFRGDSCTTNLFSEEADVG
Experimental: as §1

rat TAAR9 = target: T2, rat TAAR9 (Rattus norvegicus, UniProt Q923Y6); assay: as above; details: table S3
T2 construct: bovine rhodopsin N-terminal 20 amino acids (Rho tag); expressed in transfected cells; host or cells: HEK293(T) (SEAP assay) or Hana3A (Dual-Glo assay)
T2 sequence (Q923Y6 1-338): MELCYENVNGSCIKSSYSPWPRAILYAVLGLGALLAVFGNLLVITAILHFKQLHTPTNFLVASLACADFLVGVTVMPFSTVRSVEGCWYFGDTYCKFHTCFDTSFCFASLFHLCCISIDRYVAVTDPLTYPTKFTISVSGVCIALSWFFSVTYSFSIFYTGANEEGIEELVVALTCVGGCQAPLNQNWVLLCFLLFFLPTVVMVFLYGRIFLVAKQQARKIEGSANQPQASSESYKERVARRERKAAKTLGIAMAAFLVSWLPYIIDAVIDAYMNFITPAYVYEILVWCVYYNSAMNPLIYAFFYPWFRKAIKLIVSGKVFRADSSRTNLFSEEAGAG
Experimental: as §1

rabbit TAAR9 = target: T3, rabbit TAAR9 (Oryctolagus cuniculus, UniProt G1SUU9); assay: as above; details: table S3
T3 construct: Rho tag (N-terminal 20 aa of bovine rhodopsin); expressed in transfected cells; host or cells: HEK293T (SEAP assay) or Hana3A (Dual-Glo luciferase assay)
T3 sequence (G1SUU9 1-348): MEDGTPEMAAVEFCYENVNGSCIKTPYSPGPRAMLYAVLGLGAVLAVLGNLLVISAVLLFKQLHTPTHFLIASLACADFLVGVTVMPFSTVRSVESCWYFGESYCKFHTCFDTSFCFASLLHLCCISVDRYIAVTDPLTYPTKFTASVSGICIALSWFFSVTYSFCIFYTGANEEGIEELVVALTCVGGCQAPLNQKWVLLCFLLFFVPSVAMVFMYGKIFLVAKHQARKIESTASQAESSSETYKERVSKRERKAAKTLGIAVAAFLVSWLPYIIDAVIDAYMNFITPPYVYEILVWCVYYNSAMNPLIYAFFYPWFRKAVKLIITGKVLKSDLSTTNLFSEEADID
Experimental: as §1

zebrafish TAAR13c = tested on: zebrafish TAAR13c; set-up: method as in Hussain et al. 2013; details: ref Hussain et al. 2013; cited from earlier work
mouse TAAR9 = tested on: mouse TAAR9; set-up: method as in Saraiva et al. 2016; details: ref Saraiva et al. 2016; cited from earlier work
[1] = tested on: TARLL2a (also called TAAR346a); set-up: method as in Scott et al. 2019; details: ref Scott et al. 2019; cited from earlier work
mouse TAAR1 = mouse TAAR1 (Mus musculus, UniProt Q923Y8); assay: cell-based; details: for response of mouse TAAR1: ligands at 10 µM, luciferase assay, fig. 5B
Source text: as §2
We then compared the responses of HTR4 from mouse and zebrafish, TARL1 from zebrafish, catfish, fugu, medaka, spotted gar, and coelacanth, TARL2 from coelacanth and shark, TAAR1 from mouse and zebrafish to the 16 ligands at 10 µM (fig. 5B).
as §3, §4

hamster TAAR3 = hamster TAAR3 (Mesocricetus auratus, UniProt A0A1U7Q6M0); assay: Cell-based receptor activation reporter assay (SEAP / Dual-Glo luciferase)
Experimental: as §1

guinea pig TAAR3 = guinea pig TAAR3 (Cavia porcellus, UniProt H0W7C9); assay: as above
Experimental: as §1

TARLL3h = TARLL3h (Petromyzon marinus, UniProt A0A678XJN9); assay: as above; set-up: species or system sea lamprey; details: for EC50: TARLL3h; for ligand recognition by TARLL3h: fig. 4C
Experimental: as §1

TARLL3h D3.32A = assay: Site-directed mutagenesis, cell-based receptor activation; set-up: species or system sea lamprey; details: mutation of Asp3.32 to alanine; ligand per fig. S9C
Experimental: (§5) Recognition of diamines in TAARs involves two aspartic acids, Asp^3.32 and Asp^5.42 ([Li et al. 2015]; [Sharma et al. 2016]). However, although Asp^3.32 is retained in TARLL3h, Asp^5.42 is not found, implying a distinct diamine recognition mechanism in TARLL3h. To investigate this further, we performed homology modeling and ligand docking in TARLL3h. In addition to Asp^3.32 that forms a salt bridge with N,N,N′,N′-tetramethyl-1,4-butanediamine or N,N,N′,N′-tetramethyl-1,3-propanediamine, Tyr^3.33 binds to the other amino group through pi–cation interactions in TARLL3h (fig. 4D). […] To verify the docking results, we performed site-directed mutagenesis in TARLL3h.
as §1

TARLL3h Y3.33F = assay: as above; set-up: species or system sea lamprey; details: mutation of Tyr3.33 to phenylalanine; ligand per fig. S9C
Experimental: as §5, §1

TARLL3h Y3.33A = assay: as above; set-up: species or system sea lamprey; details: mutation of Tyr3.33 to alanine; ligand per fig. S9C
Experimental: as §5, §1

sheep TAAR5 = sheep TAAR5 (Ovis aries, UniProt A0ACI6PZ16); assay: Cell-based receptor activation reporter assay (SEAP / Dual-Glo luciferase)
Experimental: as §1

shark TAARS1b = shark TAARS1b (Chiloscyllium punctatum, UniProt A0A401S5C1); assay: as above; set-up: species or system bamboo shark
Experimental: as §1

coelacanth TAARC1b = coelacanth TAARC1b (Latimeria chalumnae, UniProt H3A8V0); assay: as above
Experimental: as §1

coelacanth TARL2 = coelacanth TARL2 (Latimeria chalumnae, UniProt H3AWX3); assay: as above
Experimental: as §1

(UniProt Z9G6W3R3V9) = assay: as above; details: coelacanth TARL1
Experimental: as §1

zebrafish TAAR1 = zebrafish TAAR1 (Danio rerio, UniProt Q5QNN1); assay: as above; details: zTAAR1
Experimental: as §1

zebrafish TARL1 = zebrafish TARL1 (Danio rerio, UniProt A0A8M1Q794); assay: as above
Experimental: as §1

Chain of TARLL3h (A0A678XJN9 entry or part of it): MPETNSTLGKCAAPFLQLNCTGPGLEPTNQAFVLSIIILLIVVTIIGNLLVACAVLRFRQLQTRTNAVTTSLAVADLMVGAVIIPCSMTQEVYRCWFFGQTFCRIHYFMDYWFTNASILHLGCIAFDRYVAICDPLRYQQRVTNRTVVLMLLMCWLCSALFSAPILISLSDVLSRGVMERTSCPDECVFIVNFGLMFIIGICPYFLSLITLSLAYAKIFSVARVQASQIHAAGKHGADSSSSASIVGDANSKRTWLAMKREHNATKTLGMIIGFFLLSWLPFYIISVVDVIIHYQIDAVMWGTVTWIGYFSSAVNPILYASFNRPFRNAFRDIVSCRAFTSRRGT
Chain of TARLL4a (A0AAJ7T9R0 entry or part of it): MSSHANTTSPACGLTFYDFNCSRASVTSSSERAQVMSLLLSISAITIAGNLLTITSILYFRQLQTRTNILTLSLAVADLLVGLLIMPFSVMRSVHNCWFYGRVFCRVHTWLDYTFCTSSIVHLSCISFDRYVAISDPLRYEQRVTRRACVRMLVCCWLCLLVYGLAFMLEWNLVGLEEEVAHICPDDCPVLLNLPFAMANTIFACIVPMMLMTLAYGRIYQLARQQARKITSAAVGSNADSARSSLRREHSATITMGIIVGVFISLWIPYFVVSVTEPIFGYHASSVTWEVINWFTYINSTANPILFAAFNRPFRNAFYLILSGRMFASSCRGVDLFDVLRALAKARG
Chain of mouse TAAR1 (Q923Y8 whole entry): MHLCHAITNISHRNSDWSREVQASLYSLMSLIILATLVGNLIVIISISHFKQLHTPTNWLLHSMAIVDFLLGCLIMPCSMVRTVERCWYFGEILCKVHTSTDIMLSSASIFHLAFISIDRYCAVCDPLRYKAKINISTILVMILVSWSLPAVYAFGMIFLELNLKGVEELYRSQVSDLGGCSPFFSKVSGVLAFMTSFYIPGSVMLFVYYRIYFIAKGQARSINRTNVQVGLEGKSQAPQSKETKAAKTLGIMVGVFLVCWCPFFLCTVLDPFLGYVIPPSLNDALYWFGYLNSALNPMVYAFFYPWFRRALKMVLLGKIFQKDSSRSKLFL
Chain of TARLL1b (A0AAJ7TCG4 entry or part of it): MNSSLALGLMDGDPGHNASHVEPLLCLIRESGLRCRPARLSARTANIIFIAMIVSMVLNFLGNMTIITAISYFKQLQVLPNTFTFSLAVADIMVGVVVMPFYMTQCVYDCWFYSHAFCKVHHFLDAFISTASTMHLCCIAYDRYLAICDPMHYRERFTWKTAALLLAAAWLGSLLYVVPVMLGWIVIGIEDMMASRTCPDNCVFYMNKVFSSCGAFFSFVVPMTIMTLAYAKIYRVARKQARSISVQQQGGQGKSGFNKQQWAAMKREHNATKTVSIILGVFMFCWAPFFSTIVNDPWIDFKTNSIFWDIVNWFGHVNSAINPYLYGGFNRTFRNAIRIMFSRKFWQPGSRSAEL
Chain of coelacanth TAARC1b (H3A8V0 entry or part of it): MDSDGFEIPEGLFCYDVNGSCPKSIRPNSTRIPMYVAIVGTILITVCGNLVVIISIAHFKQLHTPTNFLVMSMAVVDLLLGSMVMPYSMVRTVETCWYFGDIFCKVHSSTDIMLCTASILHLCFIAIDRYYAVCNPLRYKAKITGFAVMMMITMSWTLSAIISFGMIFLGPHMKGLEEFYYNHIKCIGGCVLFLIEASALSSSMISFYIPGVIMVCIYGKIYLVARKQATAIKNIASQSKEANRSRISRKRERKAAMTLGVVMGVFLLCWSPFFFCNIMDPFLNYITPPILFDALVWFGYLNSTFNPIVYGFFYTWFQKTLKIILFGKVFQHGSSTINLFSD
Chain of guinea pig TAAR3 (H0W7C9 entry or part of it): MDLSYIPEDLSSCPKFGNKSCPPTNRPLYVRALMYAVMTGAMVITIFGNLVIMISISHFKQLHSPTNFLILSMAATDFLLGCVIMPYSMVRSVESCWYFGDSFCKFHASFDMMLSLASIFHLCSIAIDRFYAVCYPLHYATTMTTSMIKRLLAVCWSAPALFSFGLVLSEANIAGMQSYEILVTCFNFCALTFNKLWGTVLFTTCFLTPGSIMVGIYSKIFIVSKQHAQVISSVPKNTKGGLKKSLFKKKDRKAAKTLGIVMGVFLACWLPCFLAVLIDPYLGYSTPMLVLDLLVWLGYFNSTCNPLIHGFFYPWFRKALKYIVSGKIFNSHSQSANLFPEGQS
Chain of sheep TAAR5 (A0ACI6PZ16 entry or part of it): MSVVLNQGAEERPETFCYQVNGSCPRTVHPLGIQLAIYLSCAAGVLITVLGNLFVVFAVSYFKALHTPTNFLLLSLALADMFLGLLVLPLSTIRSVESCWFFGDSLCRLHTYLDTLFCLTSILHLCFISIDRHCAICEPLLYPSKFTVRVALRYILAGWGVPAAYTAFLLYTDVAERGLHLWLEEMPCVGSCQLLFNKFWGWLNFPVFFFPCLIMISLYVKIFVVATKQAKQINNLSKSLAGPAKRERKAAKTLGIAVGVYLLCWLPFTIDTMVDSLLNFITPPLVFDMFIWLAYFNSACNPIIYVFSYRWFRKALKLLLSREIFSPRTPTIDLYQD
Chain of hamster TAAR3 (A0A1U7Q6M0 entry or part of it): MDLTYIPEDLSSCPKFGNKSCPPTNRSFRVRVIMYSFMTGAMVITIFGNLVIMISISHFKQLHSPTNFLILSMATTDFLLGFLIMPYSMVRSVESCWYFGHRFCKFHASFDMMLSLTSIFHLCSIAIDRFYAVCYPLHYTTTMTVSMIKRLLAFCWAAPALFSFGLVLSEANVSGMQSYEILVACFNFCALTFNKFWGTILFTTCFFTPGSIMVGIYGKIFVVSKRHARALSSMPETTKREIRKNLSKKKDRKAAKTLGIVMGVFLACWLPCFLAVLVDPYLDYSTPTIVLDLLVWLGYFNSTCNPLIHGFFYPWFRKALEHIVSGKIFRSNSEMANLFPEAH
Chain of shark TAARS1b (A0A401S5C1 entry or part of it): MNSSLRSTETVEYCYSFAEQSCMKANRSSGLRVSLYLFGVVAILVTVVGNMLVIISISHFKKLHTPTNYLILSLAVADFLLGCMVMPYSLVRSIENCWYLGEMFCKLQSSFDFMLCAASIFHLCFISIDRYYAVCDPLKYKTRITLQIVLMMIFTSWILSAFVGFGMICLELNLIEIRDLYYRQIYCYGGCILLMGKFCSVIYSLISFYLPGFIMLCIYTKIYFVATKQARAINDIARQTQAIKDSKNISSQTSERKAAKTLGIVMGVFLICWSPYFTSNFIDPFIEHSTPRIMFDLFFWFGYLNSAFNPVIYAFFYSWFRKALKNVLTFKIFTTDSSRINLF
Chain of coelacanth TARL2 (H3AWX3 entry or part of it): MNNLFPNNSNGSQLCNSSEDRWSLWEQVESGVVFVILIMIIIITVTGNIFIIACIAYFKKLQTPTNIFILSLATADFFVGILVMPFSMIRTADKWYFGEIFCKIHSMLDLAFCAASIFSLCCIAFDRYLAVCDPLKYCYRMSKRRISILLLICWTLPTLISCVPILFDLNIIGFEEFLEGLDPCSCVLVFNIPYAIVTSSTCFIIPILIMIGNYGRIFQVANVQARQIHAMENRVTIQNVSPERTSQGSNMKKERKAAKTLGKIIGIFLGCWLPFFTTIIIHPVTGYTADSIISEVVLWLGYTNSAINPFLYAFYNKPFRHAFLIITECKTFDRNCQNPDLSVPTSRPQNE
Chain of zebrafish TAAR1 (Q5QNN1 entry or part of it): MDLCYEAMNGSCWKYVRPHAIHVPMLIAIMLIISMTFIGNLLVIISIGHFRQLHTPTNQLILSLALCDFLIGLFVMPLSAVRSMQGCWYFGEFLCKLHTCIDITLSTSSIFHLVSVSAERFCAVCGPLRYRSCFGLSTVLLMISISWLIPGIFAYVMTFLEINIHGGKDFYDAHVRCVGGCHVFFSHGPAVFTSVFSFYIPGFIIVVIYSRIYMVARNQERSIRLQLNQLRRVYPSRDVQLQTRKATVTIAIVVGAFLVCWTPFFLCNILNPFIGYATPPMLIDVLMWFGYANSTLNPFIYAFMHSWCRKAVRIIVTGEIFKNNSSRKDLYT
Chain of zebrafish TARL1 (A0A8M1Q794 entry or part of it): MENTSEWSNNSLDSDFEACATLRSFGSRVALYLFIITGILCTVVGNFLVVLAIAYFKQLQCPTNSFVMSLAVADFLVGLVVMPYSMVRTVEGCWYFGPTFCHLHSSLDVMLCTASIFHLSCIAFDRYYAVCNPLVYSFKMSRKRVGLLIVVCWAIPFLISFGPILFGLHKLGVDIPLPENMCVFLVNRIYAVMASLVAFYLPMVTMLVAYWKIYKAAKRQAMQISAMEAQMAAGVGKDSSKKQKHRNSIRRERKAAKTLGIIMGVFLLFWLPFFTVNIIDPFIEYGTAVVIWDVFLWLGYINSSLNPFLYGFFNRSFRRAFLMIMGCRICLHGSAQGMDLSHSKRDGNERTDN
Chain of mouse HTR4 (P97288 whole entry): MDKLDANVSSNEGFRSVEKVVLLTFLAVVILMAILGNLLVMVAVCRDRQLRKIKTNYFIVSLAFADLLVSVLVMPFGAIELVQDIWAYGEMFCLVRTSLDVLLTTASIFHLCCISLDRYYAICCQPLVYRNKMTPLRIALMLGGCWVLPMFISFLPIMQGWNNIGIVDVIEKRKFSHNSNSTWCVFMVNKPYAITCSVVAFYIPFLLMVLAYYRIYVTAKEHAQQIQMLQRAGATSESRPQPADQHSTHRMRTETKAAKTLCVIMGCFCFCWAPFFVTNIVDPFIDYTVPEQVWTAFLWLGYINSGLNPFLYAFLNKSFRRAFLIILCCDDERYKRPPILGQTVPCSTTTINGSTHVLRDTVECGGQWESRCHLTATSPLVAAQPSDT

Cn1ccc2ccccc21 [1-methylindole]
EC50 (TARLL1b): 162 µM

Cc1c[nH]c2ccccc12 [3-methylindole]
EC50 (TARLL1b): 6.6 µM

CSCCCN [3-methylthiopropylamine]
EC50 (TARLL4a): 62.4 µM

NCCCCCO [5-amino-1-pentanol]
EC50 (TARLL4a): 40.3 µM

COc1ccc2[nH]cc(CCN)c2c1 [5-methoxytryptamine]
EC50 (mouse HTR4): 90 nM

Cc1ccc2[nH]ccc2c1 [5-methylindole]
EC50 (TARLL1b): 8.9 µM

Cc1ccc2cc[nH]c2c1 [6-methylindole]
EC50 (TARLL1b): 9.1 µM

Cc1cccc2cc[nH]c12 [7-methylindole]
EC50 (TARLL1b): 37.8 µM

CCCCCN [Amylamine, amylamine]
EC50 (TARLL4a): 10.6 µM

CCCCN [Butylamine, butylamine]
EC50 (TARLL4a): 73.5 µM

NCCCCCN [Cadaverine, cadaverine]
activation of TAAR9 (cat TAAR9): activation | activation of TAAR9 (hamster TAAR9): activation | activation of TAAR9 (rat TAAR9): activation | activation of TAAR9 (rabbit TAAR9): activation | activation of TAAR13c (zebrafish TAAR13c): activates | ligand recognition by mouse TAAR9 (mouse TAAR9): can recognize | ligand recognition by TARLL2a [1]: recognize

NC1CCCC1 [Cyclopentylamine, cyclopentylamine]
EC50 (TARLL4a): 113 µM

CCCCCCN [Hexylamine, hexylamine]
EC50 (TARLL4a): 20.4 µM | ligand profile of TARLL4a (TARLL4a): ligand profile includes | response of mouse TAAR1 (mouse TAAR1): slight responses

c1ccc2[nH]ccc2c1 [Indole, indole]
EC50 (TARLL1b): 18.9 µM | activation of TARLL1b (TARLL1b; fig. 4E, fig. S9D and E): can be activated

CC(C)CCN [Isoamylamine, isoamylamine]
EC50 (hamster TAAR3): 300 µM and ~300 µM | EC50 (guinea pig TAAR3): 200 µM and ~200 µM | EC50 (TARLL4a): 141 µM

CC(C)CN [Isobutylamine, isobutylamine]
EC50 (TARLL4a): 199 µM

CC(C)N [Isopropylamine, isopropylamine]
EC50 (TARLL4a): 254 µM | ligand profile of TARLL4a (TARLL4a): ligand profile includes

CN(C)CCCN(C)C [N,N,N',N'-tetramethyl-1,3-propanediamine, N,N,N′,N′-Tetramethyl-1,3-propanediamine]
EC50 (TARLL3h): 116 µM | ligand recognition by TARLL3h (TARLL3h): recognizes

CN(C)CCCCN(C)C [N,N,N',N'-tetramethyl-1,4-butanediamine, N,N,N′,N′-tetramethyl-1,4-butanediamine]
EC50 (TARLL3h): 40.4 µM | ligand recognition by TARLL3h (TARLL3h): recognizes | receptor activity of TARLL3h mutant D3.32A (TARLL3h D3.32A): completely eliminated the receptor activity | EC50 of TARLL3h mutant Y3.33F relative to wild type receptor (TARLL3h Y3.33F): EC50 three times higher than wild type receptor | receptor activity of TARLL3h mutant Y3.33A (TARLL3h Y3.33A): completely eliminated the receptor activity

CC(C)N(C)C [N,N-dimethylisopropylamine]
EC50 (sheep TAAR5): 50 µM and ~50 µM | EC50 (shark TAARS1b): 40.3 µM

CCCN [Propylamine, propylamine]
EC50 (TARLL4a): 133 µM

NCCc1c[nH]c2ccc(O)cc12 [Serotonin, serotonin]
EC50 (coelacanth TAARC1b): 830 nM and 800 nM | EC50 (coelacanth TARL2): 390 nM | EC50 ((UniProt Z9G6W3R3V9)): 100 nM | EC50 (zebrafish TAAR1): 2350 nM | EC50 (zebrafish TARL1): 110 nM | EC50 (TARLL1b): 0.2 µM | EC50 (mouse TAAR1; mTAAR1): 14.4 µM

NC1CCCCC1 [cyclohexylamine]
ligand profile of TARLL4a (TARLL4a): ligand profile includes

CCCCCCCN [heptylamine]
ligand profile of TARLL4a (TARLL4a): ligand profile includes | response of mouse TAAR1 (mouse TAAR1): slight responses

CCCCCCCCN [octylamine]
response of mouse TAAR1 (mouse TAAR1): slight responses

NCCCCNCCCN [spermidine]
activation of TAAR9 (cat TAAR9): activation | activation of TAAR9 (hamster TAAR9): activation | activation of TAAR9 (rat TAAR9): activation | activation of TAAR9 (rabbit TAAR9): activation | ligand recognition by mouse TAAR9 (mouse TAAR9): can recognize

NCCCNCCCCNCCCN [spermine]
activation of TAAR9 (cat TAAR9): activation | activation of TAAR9 (hamster TAAR9): activation | activation of TAAR9 (rat TAAR9): activation | activation of TAAR9 (rabbit TAAR9): activation | ligand recognition by mouse TAAR9 (mouse TAAR9): can recognize | ligand recognition by TARLL2a [1]: recognize

— paper PMC8890504, “Evolution of Brain-Expressed Biogenic Amine Receptors into Olfactory Trace Amine-Associated Receptors” (Molecular Biology and Evolution, 2022)
